Test results reported in paper doi:10.1101/534982v1 (biorxiv, 2019).

How the values were obtained:
Assay in all cases: fluorescence reverse titration
β-dimerization domain = β-dimerization domain (Homo sapiens, UniProt P11277); format: binding
α-dimerization domain = target: T1, α-dimerization domain (Homo sapiens, UniProt P02549); format: binding
T1 sequence (P02549 2002-2233): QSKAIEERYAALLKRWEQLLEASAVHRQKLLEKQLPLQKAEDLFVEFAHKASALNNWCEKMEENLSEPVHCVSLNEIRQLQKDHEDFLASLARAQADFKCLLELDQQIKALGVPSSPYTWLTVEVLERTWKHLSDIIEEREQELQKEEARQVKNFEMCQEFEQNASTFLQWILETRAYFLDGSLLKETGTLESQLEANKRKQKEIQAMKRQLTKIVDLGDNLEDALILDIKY

[1] = target: T2, Self-association domain (reconstituted) (Homo sapiens, UniProt P02549+P11277); format: binding
T2 sequence (P02549 1-158): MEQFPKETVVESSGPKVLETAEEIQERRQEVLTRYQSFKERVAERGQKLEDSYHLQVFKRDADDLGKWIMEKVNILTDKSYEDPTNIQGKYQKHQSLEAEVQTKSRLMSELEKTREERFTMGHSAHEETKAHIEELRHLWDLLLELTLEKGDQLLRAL
T2 sequence (P11277 1895-2137): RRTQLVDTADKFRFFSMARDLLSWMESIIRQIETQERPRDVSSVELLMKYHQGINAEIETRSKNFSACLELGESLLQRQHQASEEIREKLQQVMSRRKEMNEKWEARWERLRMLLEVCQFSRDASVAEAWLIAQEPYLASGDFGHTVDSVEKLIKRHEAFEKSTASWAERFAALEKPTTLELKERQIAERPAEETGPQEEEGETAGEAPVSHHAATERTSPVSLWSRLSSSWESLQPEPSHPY

ankyrin binding domain = target: T3, ankyrin binding domain (Homo sapiens, UniProt P11277)
T3 sequence (P11277 1657-1876): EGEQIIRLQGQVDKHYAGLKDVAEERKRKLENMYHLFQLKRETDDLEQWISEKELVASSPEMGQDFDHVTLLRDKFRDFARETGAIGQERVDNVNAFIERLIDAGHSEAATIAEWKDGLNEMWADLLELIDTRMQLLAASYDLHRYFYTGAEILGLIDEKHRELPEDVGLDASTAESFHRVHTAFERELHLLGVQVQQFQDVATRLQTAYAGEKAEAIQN

spectrin repeat domain = target: T4, spectrin repeat domain (Homo sapiens, UniProt P02549); format: binding
T4 sequence (P02549 1470-1576): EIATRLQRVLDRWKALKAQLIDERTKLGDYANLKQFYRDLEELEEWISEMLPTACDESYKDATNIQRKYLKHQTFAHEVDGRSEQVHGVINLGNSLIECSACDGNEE

[2] = target: Spectrin (dimeric human erythroid spectrin) (Homo sapiens, UniProt P02549+P11277); format: binding
Sequence of Spectrin (dimeric human erythroid spectrin) (P02549 whole entry, the tested form may be a part): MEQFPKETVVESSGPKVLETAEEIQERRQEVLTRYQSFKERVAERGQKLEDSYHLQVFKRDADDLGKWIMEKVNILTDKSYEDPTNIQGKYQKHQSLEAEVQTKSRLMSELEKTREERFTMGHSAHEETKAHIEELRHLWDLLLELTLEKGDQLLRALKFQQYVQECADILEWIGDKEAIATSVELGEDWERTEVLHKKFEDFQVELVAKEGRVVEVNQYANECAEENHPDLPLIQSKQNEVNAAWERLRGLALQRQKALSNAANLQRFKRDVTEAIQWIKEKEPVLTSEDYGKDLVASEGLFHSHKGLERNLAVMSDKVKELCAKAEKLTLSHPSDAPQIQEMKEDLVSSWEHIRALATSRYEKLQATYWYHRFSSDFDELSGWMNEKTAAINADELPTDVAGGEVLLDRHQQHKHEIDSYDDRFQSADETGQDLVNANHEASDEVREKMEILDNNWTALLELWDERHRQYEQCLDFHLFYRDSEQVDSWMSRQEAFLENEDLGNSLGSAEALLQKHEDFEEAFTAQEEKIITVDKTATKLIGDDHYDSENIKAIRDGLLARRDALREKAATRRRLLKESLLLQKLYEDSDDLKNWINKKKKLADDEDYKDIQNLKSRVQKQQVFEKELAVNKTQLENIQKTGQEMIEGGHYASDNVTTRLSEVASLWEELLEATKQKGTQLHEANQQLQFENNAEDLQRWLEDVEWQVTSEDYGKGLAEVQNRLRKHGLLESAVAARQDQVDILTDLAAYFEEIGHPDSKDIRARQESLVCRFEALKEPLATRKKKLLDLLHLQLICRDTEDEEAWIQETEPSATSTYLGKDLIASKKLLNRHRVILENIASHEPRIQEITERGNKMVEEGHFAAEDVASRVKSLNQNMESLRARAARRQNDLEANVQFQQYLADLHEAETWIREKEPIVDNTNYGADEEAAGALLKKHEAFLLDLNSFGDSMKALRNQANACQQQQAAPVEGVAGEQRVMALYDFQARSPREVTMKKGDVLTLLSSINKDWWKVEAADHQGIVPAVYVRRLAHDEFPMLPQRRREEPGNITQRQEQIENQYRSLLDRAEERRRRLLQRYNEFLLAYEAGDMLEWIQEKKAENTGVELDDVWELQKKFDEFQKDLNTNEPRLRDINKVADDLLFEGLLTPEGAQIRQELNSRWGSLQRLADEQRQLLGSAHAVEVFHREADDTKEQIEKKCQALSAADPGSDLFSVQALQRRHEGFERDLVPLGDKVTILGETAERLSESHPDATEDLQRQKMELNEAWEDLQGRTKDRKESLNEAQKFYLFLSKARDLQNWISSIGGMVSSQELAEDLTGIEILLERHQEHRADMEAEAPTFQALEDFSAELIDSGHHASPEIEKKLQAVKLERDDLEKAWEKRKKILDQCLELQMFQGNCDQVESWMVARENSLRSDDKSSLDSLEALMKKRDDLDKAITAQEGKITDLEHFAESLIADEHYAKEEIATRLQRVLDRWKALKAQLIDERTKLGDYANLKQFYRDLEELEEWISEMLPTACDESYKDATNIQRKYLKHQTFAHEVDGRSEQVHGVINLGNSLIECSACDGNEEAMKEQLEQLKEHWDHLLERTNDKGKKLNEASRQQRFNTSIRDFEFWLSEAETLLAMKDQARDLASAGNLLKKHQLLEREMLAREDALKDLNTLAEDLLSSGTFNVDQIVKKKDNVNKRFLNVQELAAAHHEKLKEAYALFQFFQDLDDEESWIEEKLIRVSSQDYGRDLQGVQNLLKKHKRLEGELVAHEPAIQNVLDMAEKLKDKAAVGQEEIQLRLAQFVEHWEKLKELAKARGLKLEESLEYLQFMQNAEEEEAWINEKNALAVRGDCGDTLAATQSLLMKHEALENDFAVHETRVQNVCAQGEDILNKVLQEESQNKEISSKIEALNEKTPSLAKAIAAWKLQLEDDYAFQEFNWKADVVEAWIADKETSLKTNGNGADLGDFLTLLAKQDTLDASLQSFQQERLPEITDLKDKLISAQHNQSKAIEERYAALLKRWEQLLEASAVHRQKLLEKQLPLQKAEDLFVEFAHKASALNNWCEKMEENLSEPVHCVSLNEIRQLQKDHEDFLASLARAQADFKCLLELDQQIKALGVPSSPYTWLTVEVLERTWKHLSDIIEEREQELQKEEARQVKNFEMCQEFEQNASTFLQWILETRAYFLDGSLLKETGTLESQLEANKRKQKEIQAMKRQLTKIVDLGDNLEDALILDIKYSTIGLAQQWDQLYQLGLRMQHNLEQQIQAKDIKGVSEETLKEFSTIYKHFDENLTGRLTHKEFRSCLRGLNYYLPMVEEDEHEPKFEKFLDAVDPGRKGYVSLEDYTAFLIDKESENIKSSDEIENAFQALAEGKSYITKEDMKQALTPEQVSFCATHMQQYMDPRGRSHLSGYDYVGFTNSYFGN
Sequence of Spectrin (dimeric human erythroid spectrin) (P11277 2-2137): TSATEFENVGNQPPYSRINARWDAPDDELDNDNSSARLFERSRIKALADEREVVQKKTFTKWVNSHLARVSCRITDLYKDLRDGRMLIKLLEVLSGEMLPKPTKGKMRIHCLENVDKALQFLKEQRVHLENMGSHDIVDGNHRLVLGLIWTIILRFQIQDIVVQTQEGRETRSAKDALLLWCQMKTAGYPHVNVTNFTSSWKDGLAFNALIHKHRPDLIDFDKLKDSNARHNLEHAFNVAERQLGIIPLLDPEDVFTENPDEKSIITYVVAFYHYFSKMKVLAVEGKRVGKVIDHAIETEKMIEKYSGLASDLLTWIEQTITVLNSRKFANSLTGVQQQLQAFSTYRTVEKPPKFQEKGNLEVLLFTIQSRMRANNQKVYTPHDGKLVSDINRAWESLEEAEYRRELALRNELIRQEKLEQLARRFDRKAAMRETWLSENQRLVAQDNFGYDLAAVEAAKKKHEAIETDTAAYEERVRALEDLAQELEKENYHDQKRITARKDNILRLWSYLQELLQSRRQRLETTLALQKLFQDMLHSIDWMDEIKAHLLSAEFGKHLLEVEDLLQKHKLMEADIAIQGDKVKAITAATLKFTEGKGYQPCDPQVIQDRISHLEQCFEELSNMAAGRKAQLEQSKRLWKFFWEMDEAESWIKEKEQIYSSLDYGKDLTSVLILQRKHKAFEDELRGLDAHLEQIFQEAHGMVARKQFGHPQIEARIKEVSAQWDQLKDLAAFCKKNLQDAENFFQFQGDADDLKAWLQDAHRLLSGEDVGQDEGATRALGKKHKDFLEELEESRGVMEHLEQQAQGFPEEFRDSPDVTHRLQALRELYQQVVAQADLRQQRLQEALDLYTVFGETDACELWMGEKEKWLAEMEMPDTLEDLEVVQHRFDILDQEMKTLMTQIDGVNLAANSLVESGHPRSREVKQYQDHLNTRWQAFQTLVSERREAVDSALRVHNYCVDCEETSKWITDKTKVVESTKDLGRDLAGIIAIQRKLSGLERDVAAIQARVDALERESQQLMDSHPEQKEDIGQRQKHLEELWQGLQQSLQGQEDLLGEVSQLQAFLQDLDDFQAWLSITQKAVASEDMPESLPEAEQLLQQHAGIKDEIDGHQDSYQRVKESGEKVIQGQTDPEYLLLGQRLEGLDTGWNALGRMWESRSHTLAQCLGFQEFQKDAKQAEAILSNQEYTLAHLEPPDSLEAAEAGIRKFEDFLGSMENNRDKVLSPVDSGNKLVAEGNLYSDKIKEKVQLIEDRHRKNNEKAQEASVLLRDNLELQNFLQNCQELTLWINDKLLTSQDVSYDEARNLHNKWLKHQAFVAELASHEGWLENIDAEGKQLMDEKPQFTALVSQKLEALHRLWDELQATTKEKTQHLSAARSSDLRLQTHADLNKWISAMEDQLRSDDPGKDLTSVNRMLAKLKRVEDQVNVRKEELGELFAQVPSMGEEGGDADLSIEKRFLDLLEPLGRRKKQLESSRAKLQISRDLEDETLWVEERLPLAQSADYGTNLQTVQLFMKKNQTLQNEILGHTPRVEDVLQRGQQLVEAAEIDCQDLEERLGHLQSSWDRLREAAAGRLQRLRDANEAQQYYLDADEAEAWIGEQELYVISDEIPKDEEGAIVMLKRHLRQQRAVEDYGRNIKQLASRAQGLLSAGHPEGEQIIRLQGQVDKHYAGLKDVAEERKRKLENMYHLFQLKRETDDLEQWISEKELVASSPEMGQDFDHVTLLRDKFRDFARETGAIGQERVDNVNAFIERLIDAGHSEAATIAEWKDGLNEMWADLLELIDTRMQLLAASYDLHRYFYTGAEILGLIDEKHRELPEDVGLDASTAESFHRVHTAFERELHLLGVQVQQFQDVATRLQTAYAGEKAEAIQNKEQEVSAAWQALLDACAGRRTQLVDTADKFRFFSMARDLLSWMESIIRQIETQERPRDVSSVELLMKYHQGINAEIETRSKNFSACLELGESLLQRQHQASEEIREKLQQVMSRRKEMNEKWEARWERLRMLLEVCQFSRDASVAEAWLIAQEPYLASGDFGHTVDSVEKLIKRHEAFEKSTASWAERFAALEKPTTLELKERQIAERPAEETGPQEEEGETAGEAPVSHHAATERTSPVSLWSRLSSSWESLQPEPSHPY

α-tetramerization domain = target: T5, α-tetramerization domain (Homo sapiens, UniProt P02549); format: binding
T5 sequence (P02549 1-158): T2 sequence (P02549 1-158)

SH3 domain = target: T6, SH3 domain (Homo sapiens, UniProt P02549); format: binding
T6 sequence (P02549 973-1055): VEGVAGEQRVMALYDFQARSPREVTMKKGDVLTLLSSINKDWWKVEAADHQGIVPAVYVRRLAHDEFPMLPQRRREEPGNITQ

β-tetramerization domain = target: T7, β-tetramerization domain (Homo sapiens, UniProt P11277); format: binding
T7 sequence (P11277 1895-2137): T2 sequence (P11277 1895-2137)

actin binding domain = actin binding domain (Homo sapiens, UniProt P11277)
Sequence of actin binding domain (P11277 1-316): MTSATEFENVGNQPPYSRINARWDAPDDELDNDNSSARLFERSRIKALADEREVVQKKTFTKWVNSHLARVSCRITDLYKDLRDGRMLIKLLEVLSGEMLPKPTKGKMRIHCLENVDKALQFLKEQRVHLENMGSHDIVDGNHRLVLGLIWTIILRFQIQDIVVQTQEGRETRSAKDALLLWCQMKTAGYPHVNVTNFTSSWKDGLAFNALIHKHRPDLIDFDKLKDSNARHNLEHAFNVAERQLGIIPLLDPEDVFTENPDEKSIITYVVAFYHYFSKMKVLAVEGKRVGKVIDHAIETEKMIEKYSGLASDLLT

Sequence of β-dimerization domain (P11277 271-500): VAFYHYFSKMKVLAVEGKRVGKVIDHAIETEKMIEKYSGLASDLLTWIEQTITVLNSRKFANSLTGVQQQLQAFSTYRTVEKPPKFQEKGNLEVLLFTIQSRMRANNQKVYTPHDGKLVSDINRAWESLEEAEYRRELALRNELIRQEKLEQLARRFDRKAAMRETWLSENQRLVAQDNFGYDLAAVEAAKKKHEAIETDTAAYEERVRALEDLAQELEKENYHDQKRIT

With `O=S(=O)(O)c1cccc2cccc(Nc3ccccc3)c12` [ANS, 1-anilinonaphthalene-8-sulfonic acid] as the molecule, how does the Kd (β-dimerization domain) read?
Its Kd is 37.2 ± 3.1 µM.

What about the Kd (α-dimerization domain) of the same molecule?
The Kd was 51.5 ± 3.2 µM.

What about the Kd [1] of the same molecule?
Its Kd is 38.9 ± 2.3 µM.

And the Kd (ankyrin binding domain)?
Its Kd is 40 ± 2.8 µM.

What about the Kd (spectrin repeat domain) of the same molecule?
The Kd was 47.7 ± 2.9 µM.

And the Kd [2]?
Its Kd is 30.1 ± 2 µM.

What about the Kd (α-tetramerization domain) of the same molecule?
The Kd was 45.4 ± 3.1 µM.

What about the Kd (SH3 domain) of the same molecule?
The Kd was 64 ± 2.7 µM.

And the Kd (β-tetramerization domain)?
Its Kd is 48.2 ± 3.3 µM.

What about the Kd (actin binding domain) of the same molecule?
Its Kd is 64.3 ± 3.9 µM.
